ChEMBL document CHEMBL1125995, “Synthesis of a difluoromethylenephosphonate analogue of AZT 5'-triphosphate and its inhibition of HIV-1 reverse transcriptase” (Bioorg Med Chem Lett, 1991)

Legend:
[1] = target: T1, Human immunodeficiency virus type 1 reverse transcriptase (Human immunodeficiency virus 1, UniProt Q72547); assay: Compound concentration that causes 50 % inhibition of HIV-1 peptide-derived reverse transcriptase (RT)
[2] = target: T1, Human immunodeficiency virus type 1 reverse transcriptase; assay: Inhibitory constant was determined in an HIV-1 reverse transcriptase assay in which the [3H]dTTP concentration was varied (i.e. 40, 20, 10, 6, and 4 uM
[3] = target: T1, Human immunodeficiency virus type 1 reverse transcriptase; assay: Compound concentration that causes 50 % inhibition of HIV-1 peptide-derived reverse transcriptase (RT) obtained from HIV-1-infected H9 cell cultures

Row | IC50 [1] | Ki [2] | IC50 [3] | SMILES
1 | 6.95 µM | – | – | Cc1cn(C2CC(N=[N+]=[N-])C(COP(=O)(O)OP(=O)(O)CP(=O)(O)O)O2)c(=O)[nH]c1=O (centres undefined)
2 | 0.62 µM | 2230 nM | – | Cc1cn(C2CC(N=[N+]=[N-])C(COP(=O)(O)OP(=O)(O)C(F)(F)P(=O)(O)O)O2)c(=O)[nH]c1=O (centres undefined)
3 | – | – | 22 nM | Cc1cn([C@H]2C[C@H](N=[N+]=[N-])[C@@H](CO[P@](=O)(O)O[P@](=O)(O)OP(=O)(O)O)O2)c(=O)[nH]c1=O [ZIDOVUDINE TRIPHOSPHATE]
